In patent publication US8920793B2, “Biodegradable PAOX polymer particle with cationic property” (Industrial Cooperation Foundation Chonbuk National …, priority 2011, dated 2014):

Tests used:
[1] = system: acute liver failure induced by acetaminophen (APAP); experiment: ALT assay in mouse models of APAP-induced acute liver failure; type: in vivo; details: 10 ug of free PEN, 1 hour before APAP
Method: On the assumption that the PAOX polymers rapidly deliver drugs to the cytoplasm due to high hydrolysis rate and proton sponge effects, which leads to more rapid treatment, mouse models of acute liver failure (ALF) were used as experimental models, and pentoxifylline (PEN) was used as a drug model.
In order to investigate the cytotoxicity of PAOX-PEN particles prepared by the method as described in the above section 7, a tetrazolium-based colorimetric MTT assay was performed. Moreover, an alanine transaminase (ALT) assay, which is mainly used for evaluation of liver functions, was performed to evaluate the effect of PAOX-PEN particles in terms of the amount of drug loaded in PAOX-PEN particles and daily dosages.
6-week-old BALB/c female mice were used for the experiments and classified into each group. The PAOX-PEN particles were dispersed in 10 mg/mL (PBS), and each of 50 μL, 100 μL, and 200 μL of the resulting solution was injected into mouse tail veins. In the case of free PEN, the drug solution was administered with the calculation of dose and, only PBS was administered to the negative control groups. After 1 hour, 200 μL of APAP in a concentration of 25 mg/mL was injected intraperitoneally to induce acute liver failure. The mice were sacrificed 10 hours later, and blood was taken from the heart. […]

[2] = oral intake; cited from earlier work
RAW 264.7 cells = experiment: Catalase delivery: PMA-induced hydrogen peroxide, DCFH-DA fluorescence by flow cytometry; type: cell-based; details: pretreatment 12 hours, then PMA stimulation
Method: To investigate the ability of PAOX particles to deliver protein drugs, catalase was used as a model protein drug. RAW 264.7 cells (1×10^6 cells) were pretreated with catalase, catalase-loaded PAOX particles, catalase-loaded PLGA particles or empty PAOX particles for 12 hours and then stimulated with 1 μg of PMA (phorbol-12-myristate-13-acetate) to induce the production of hydrogen peroxide. PMA was used to stimulate cells for the production of reactive oxygen species including hydrogen peroxide. Then, DCFH-DA (dichlorofluorescin-diacetate) was added to each well and incubated for 30 minutes. The efficacy of PAOX particles to deliver catalase to cells was evaluated by measuring the intensity of the fluorescence produced by DCFH-DA with a flow cytometry caliber (Becton Dickinson, US).

CC(=O)CCCCn1c(=O)c2c(ncn2C)n(C)c1=O [free PEN, pentoxifylline]
ALT reduction effect [1]: no ALT reduction effects

OCC1CCC(CO)CC1 (stereo not drawn) [1,4-cyclohexanedimethanol]
LD50 [2]: 3,200 mg/kg

B1: catalase (protein, UniProt P00432 2-527, looked up)
Catalase: ADNRDPASDQMKHWKEQRAAQKPDVLTTGGGNPVGDKLNSLTVGPRGPLLVQDVVFTDEMAHFDRERIPERVVHAKGAGAFGYFEVTHDITRYSKAKVFEHIGKRTPIAVRFSTVAGESGSADTVRDPRGFAVKFYTEDGNWDLVGNNTPIFFIRDALLFPSFIHSQKRNPQTHLKDPDMVWDFWSLRPESLHQVSFLFSDRGIPDGHRHMNGYGSHTFKLVNANGEAVYCKFHYKTDQGIKNLSVEDAARLAHEDPDYGLRDLFNAIATGNYPSWTLYIQVMTFSEAEIFPFNPFDLTKVWPHGDYPLIPVGKLVLNRNPVNYFAEVEQLAFDPSNMPPGIEPSPDKMLQGRLFAYPDTHRHRLGPNYLQIPVNCPYRARVANYQRDGPMCMMDNQGGAPNYYPNSFSAPEHQPSALEHRTHFSGDVQRFNSANDDNVTQVRTFYLKVLNEEQRKRLCENIAGHLKDAQLFIQKKAVKNFSDVHPEYGSRIQALLDKYNEEKPKNAVHTYVQHGSHLSAREKANL
inhibitory effect on PMA-induced fluorescence (RAW 264.7 cells): no inhibitory effects
